The values that follow come from patent US11584765B2 (priority 2017, dated 2023).

The structures appear in SMILES notation. Bounds are passed on as bounds.

The experiment relates to C57BL/6 mice. The experiment is described as follows: animal or person. Type of experiment: in vivo. Conditions: Mus musculus, sc, 0.5 h, s.c. administration, 30 min, 55° C. water, read-out: ED50 (mg/kg) at 30 min on C57BL/6 mice in Warm-water Tail-flick Test.

With `CCOC[C@@]1(CCc2cccs2)CCN(Cc2cnn(C)c2)C1.Cl` [Compound 430, (S)-4-((3-(ethoxymethyl)-3-(2-(thiophen-2-yl)ethyl)pyrrolidin-1-yl)methyl)-1-methyl-1H-pyrazole HCl], the ED50 was below 10 mg/kg.
For the compound `CCOCC1(CCC2CC2)CCN(C(C)(C)c2ccc(C)nc2)C1` (stereo not shown) [Compound 431, 5-(2-(3-(2-cyclopropylethyl)-3-(ethoxy-methyl)pyrrolidin-1-yl)propan-2-yl)-2-methylpyridine], the ED50 was below 10 mg/kg.
In the case of `Cc1ccc(CN2CCC(CCc3ccccc3)(c3ccccn3)CC2)cn1` [Compound 432, 2-methyl-5-((4-phenethyl-4-(pyridin-2-yl)piperidin-1-yl)methyl)pyridine] it was below 10 mg/kg; in that of `CC(C)(c1cccnc1)N1CCC(CCc2ccccc2)(c2ccccn2)CC1` [Compound 433, 2-(4-phenethyl-1-(2-(pyridin-3-yl)propan-2-yl)piperidin-4-yl)pyridine], below 10 mg/kg.
In the case of `CCOC[C@@]1(CCc2ccc(F)cc2)CCN(C2(c3ccc(C)nc3)CC2)C1` [Compound 434, (S)-5-(1-(3-(ethoxymethyl)-3-(4-fluoro-phenethyl)pyrrolidin-1-yl)cyclopropyl)-2-methylpyridine] it was below 10 mg/kg; in that of `CCOC[C@@]1(CCc2ccc(F)s2)CCN(C2(c3ccc(C)nc3)CC2)C1` [Compound 435], below 10 mg/kg; in that of `CCOC[C@@]1(CCc2ccc(F)cc2)CCN(C2(c3cnc(C)cc3CC)CC2)C1` [Compound 436, (S)-5-(1-(3-(ethoxymethyl)-3-(4-fluoro-phenethyl)pyrrolidin-1-yl)cyclopropyl)-4-ethyl-2-methylpyridine], below 10 mg/kg.
In the case of `CCOC[C@@]1(CCc2ccc(C)cc2)CCN(Cc2cccnc2)C1` [Compound 437, (S)-3-((3-(ethoxymethyl)-3-(4-methyl-phenethyl)pyrrolidin-1-yl)methyl)pyridine] it was below 10 mg/kg; in that of `CCOCC1(CCc2ccccc2)CCN(N(C)c2ccc(C)nc2)C1` (stereo not shown) [Compound 438, N-(3-(ethoxymethyl)-3-phenethylpyrrolidin-1-yl)-N,6-dimethylpyridin-3-amine], above 10 mg/kg.
For `CCOC[C@@]1(CCc2ccc(F)cn2)CCN(Cc2cnc3ccccc3c2)C1` [Compound 439, (S)-3-((3-(ethoxymethyl)-3-(2-(5-fluoropyridin-2-yl)ethyl)pyrrolidin-1-yl)methyl)quinoline], the ED50 is below 10 mg/kg.
In the case of `CCOC[C@@]1(CCc2ccccc2F)CCN(Cc2cccnc2)C1` [Compound 440] it was below 10 mg/kg; in that of `CCOC[C@@]1(CCc2cccc(F)c2)CCN(Cc2cccnc2)C1` [Compound 441, (S)-3-((3-(ethoxymethyl)-3-(3-fluoro-phenethyl)pyrrolidin-1-yl)methyl)pyridine], below 10 mg/kg; in that of `CCOC[C@@]1(CNc2ccccc2)CCN(Cc2ccc(C)nc2)C1.Cl` [Compound 442, (R)-N-((3-(ethoxymethyl)-1-((6-methylpyridin-3-yl)methyl)pyrrolidin-3-yl)methyl)aniline HCl], below 10 mg/kg.
In the case of `CCOC[C@@]1(CN(C)c2ccccc2)CCN(Cc2cccnc2)C1.Cl` [Compound 443, (S)-N-((3-(ethoxymethyl)-l-(pyridin-3-ylmethyl)pyrrolidin-3-yl)methyl)-N-methylaniline HCl] it was below 10 mg/kg; in that of `CCOC[C@@]1(COc2ccccc2)CCN(Cc2cccnc2)C1.Cl` [Compound 444, (R)-3-((3-(ethoxymethyl)-3-(phenoxy-methyl)pyrrolidin-1-yl)methyl)pyridine HCl], below 10 mg/kg.
In the case of `CCOC[C@@]1(CCc2nccn2C)CCN(C(C)(C)c2ccc(C)nc2)C1.Cl` [Compound 445, (S)-5-(2-(3-(ethoxymethyl)-3-(2-(1-methyl-1H-imidazol-2-yl)ethyl)pyrrolidin-1-yl)propan-2-yl)-2-methylpyridine HCl] it was below 10 mg/kg.
